Structures can show the parent of a compound that is named as a salt. Where two headings read alike, the source gives them in different places.
What was measured:
[1] = target: LSD1 (Homo sapiens (Human), UniProt O60341); test: LSD1 enzyme activity detection (HTRF); format: biochemical; details: HTRF, H3K4me1 substrate; read-out: Inhibition of enzymatic activity of LSD1 IC50
[2] = system: NCI-H1417 cells; test: In vitro cell proliferation detection (CellTiter-Glo, 7 days); format: cell-based; details: Homo sapiens
[3] = target: CYP3A4 (Homo sapiens (Human), UniProt P08684); test: CYP 450 enzyme inhibition test (mixed human liver microsomes, LC-MS/MS); details: read-out: CYP3A4-T IC50; mixed human liver microsomes, NADPH, CYP3A4-T probe substrate
[4] = Rat PK test (IV and PO); details: for Cl / F: Male SD rats; for F: PO vs IV; for AUC(0-inf) / Cmax / half-life / Vd: male, SD, rat, plasma; for Vd: intravenous; on Cmax: test concentration or dose not given here
[5] = target: voltage-gated potassium ion channel hERG (Homo sapiens (Human), UniProt Q12809); test: hERG inhibition test (manual patch-clamp); details: read-out: hERG IC50; manual patch-clamp
[6] = Caco-2 permeability test; details: human, Caco-2
[7] = 168 h, NCI-H1417 cells, 7 days, CellTiter-Glo, read-out: NCI-H1417 proliferation inhibition IC50

CYP3A4, sequence (P08684 whole entry): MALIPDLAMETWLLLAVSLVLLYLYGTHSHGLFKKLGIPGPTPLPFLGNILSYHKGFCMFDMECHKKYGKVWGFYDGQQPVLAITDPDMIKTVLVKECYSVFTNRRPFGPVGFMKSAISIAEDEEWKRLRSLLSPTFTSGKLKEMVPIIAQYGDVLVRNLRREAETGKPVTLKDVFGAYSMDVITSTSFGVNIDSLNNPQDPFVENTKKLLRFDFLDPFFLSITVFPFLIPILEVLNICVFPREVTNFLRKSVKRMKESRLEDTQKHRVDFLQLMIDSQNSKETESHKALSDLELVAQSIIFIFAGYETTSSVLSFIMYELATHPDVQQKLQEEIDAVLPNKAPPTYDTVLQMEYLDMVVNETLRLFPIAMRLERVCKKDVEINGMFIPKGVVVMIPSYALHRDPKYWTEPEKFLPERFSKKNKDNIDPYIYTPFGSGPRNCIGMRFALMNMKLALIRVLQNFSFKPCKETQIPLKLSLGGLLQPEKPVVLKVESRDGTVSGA
voltage-gated potassium ion channel hERG, sequence (Q12809 whole entry): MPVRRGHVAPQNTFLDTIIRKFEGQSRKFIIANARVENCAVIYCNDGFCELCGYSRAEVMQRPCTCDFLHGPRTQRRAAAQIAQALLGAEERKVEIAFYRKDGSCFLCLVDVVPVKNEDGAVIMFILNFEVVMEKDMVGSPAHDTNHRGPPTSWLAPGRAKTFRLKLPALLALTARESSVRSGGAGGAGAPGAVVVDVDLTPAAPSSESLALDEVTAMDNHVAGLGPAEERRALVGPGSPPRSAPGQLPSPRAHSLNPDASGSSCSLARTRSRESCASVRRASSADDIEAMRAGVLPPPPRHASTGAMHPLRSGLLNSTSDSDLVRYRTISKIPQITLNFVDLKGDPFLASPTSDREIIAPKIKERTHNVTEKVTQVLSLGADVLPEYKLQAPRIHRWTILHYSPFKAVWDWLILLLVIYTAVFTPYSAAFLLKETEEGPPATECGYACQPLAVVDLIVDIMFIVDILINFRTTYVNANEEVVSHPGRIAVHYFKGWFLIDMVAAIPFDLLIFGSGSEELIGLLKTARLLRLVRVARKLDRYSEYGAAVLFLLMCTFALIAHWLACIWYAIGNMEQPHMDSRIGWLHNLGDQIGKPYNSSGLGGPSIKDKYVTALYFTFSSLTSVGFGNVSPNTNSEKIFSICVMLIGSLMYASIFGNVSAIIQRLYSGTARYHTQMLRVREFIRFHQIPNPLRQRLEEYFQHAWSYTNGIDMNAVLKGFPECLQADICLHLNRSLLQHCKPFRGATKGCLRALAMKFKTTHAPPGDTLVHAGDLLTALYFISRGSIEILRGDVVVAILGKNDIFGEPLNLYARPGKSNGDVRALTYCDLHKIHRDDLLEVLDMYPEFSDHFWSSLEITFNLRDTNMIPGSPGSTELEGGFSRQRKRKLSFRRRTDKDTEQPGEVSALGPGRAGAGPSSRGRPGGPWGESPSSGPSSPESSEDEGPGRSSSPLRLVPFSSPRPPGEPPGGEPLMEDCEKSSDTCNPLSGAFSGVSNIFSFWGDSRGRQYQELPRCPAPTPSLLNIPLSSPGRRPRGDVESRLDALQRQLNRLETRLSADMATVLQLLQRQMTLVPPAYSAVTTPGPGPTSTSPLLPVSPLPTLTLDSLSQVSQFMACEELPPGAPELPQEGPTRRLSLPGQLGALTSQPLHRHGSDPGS

SMILES | IC50 [1] | IC50 [2, 7] | IC50 [3] | IC50 [5] | also measured
CC1CN(C(=O)c2cc(CN[C@@H]3C[C@H]3c3ccc(F)cc3)nc(-c3ccc(C#N)cc3)n2)CC(C)N1 (stereo partly drawn) [Example 239, 4-(4-(3,5-dimethyl-piperazine-1-carbonyl)-6-((((1R,2S)-2-(4-fluoro-phenyl)cyclopropyl)amino)methyl)pyrimidin-2-yl) benzonitrile] | 4.8 ± 1.8 nM | 0.986 nM | > 10000 nM |  | 
COc1ccc(-c2c(-c3ccc(C#N)c(F)c3)nc(N3CC4CC3CC4N)n3ccnc23)cc1F (stereo not drawn) [Example 169, 4-(5-(5-amino-2-azabicyclo[2.2.1]heptane-2-yl)-8-(3-fluoro-4-methoxyphenyl)imidazolo[1,2-c]pyrimidin-7-yl)-2-fluorobenzonitrile hydrochloride] | 4.3 ± 0.9 nM | 4 nM | > 10000 nM |  | 
COc1ccc(-c2cnc(N3CCC(N)CC3)c(C#N)c2-c2ccc(C#N)c(F)c2)cc1O [Example 66, 2-(4-aminopiperidin-1-yl)-4-(4-cyano-3-fluorophenyl)-5-(3-hydroxy-4-methoxyphenyl)nicotinon itrile hydrochloride] | 0.2 ± 0.1 nM | 0.2 nM | 3650 nM | 15500 nM | Cl [4]: 68.2 mL/min/kg; F [4]: 17.7%; AUC(0-inf) [4]: 227 ng·h/mL; Cmax [4]: 42.5 ng/mL; half-life [4]: 1.96 h; Vd [4]: 11.3 L/kg
COc1ccc(-c2c(O)cc(N3CCC(N)CC3)nc2-c2ccc(C#N)c(F)c2)cc1O [Example 23, 4-(6-(4-aminopiperidin-1-yl)-4-hydroxy-3-(3-hydroxy-4-methoxyphenyl)pyridin-2-yl)-2-fluorobenzonitrile] | 0.18 ± 0.08 nM | 0.44 nM | 54200 nM | > 30000 nM | 
COc1ccc(-c2c(OC)cc(N3CCC(N)CC3)nc2-c2ccc(C#N)c(F)c2)cc1F [Example 87, 4-(6-(4-aminopiperidin-1-yl)-3-(3-fluoro-4-methoxyphenyl)-4-methoxypyridin-2-yl)-2-fluoroben zonitrile] | 2.82 ± 1.49 nM | 3.29 nM | 6740 nM |  | Papp A→B at 120 min [6]: 2.97 ×10⁻⁶ cm/s; Papp B→A at 120 min [6]: 3.35 ×10⁻⁶ cm/s; efflux ratio at 120 min [6]: 1.13
COc1ccc(-c2cnc(N3CCC(C)(N)CC3)c(C#N)c2-c2ccc(C#N)c(F)c2)cc1O [Example 80, 2-(4-amino-4-methylpiperidin-1-yl)-4-(4-cyano-3-fluorophenyl)-5-(3-hydroxy-4-methoxyphenyl) )nicotinonitrile hydrochloride] | 1 ± 0.4 nM | 1.22 nM | > 10000 nM | 9330 nM | 
COc1ccc(-c2c(C#N)cc(N3CCC(N)CC3)nc2-c2ccc(C#N)c(F)c2)cc1O [Example 273, 6-(4-aminopiperidin-1-yl)-2-(4-cyano-3-fluorophenyl)-3-(3-hydroxy-4-methoxyphenyl)pyridine-4-carbonitrile] | 0.2 ± 0.05 nM | 1.19 nM | > 10000 nM |  | 
COc1ccc(-c2c(-c3ccc(C#N)c(F)c3)nc(N3CC4CC3CC4N)n3ccnc23)cc1O (stereo not drawn) [Example 164, 4-(5-(5-amino-2-azabicyclo[2.2. 1]heptan-2-yl)-8-(3-hydroxy-4-methoxyphenyl)imidazolo[1,2-c]pyrimidin-7-yl)-2-fluorobenzonitrile hydrochloride] | 0.4 ± 0.2 nM | 0.22 nM | > 10000 nM |  | 
N#Cc1ccc(-c2nc(N3CCC(N)CC3)n3ccnc3c2-c2ccc(N3CCOCC3)cc2)cc1F [Example 128, 4-(5-(4-aminopiperidin-1-yl)-8-(4-morpholinophenyl)imidazolo [1,2-c]pyrimidin-7-yl)-2-fluorobenzonitrile] | 4.19 ± 0.11 nM | 6.46 nM | > 50000 nM | 13700 nM | 
COc1ccc(-c2c(-c3ccc(C#N)c(F)c3)nc(N3CCC(N)CC3)c3c2OCC(=O)N3)cc1O [Example 280, 4-(5-(4-aminopiperidin-1-yl)-8-(3-hydroxy-4-methoxyphenyl)-3-oxo-3,4-dihydro-2H-pyridine[4,3-b][1,4]oxazin-7-yl)-2-fluorobenzonitrile hydrochloride] |  |  | > 10000 nM |  | IC50 ([2]; NCI-H1417, 168 h, read-out: NCI-H1417 proliferation inhibition IC50(nM)): 2.7 ± 1 nM
N#Cc1ccc(-c2c(-c3ccc(C(F)(F)F)c(O)c3)cnc(N3CCC(N)CC3)c2C#N)cc1F [Example 70, 2-(4-aminopiperidin-1-yl)-4-(4-cyano-3-fluorophenyl)-5-(3-hydroxy-4-(trifluoromethyl)phenyl) nicotinonitrile hydrochloride] | 0.5 ± 0.3 nM | 0.885 nM | 8710 nM |  | 
COc1ccc(-c2nc(CN[C@@H]3C[C@H]3c3ccc(F)cc3)cc(C(=O)N3CCN(S(C)(=O)=O)CC3)n2)cc1O [Example 224] | 25.7 nM | 11.6 nM | 5540 nM | 5600 nM | 
CS(=O)(=O)N1CCN(C(=O)c2cc(CN[C@@H]3C[C@H]3c3ccc(F)cc3)nc(-c3ccc(N4CCOCC4)cc3)n2)CC1 [Example 227] | 42.6 nM | 3.91 nM | 14100 nM | 6290 nM | 
O=C(NC1CCOCC1)c1cc(CN[C@@H]2C[C@H]2c2ccc(F)cc2)nc(-c2ccc(N3CCOCC3)cc2)n1 [Example 246, 6-(((1R,2S)-2-(4-fluorophenyl)cyclopropyl)amino)methyl)-2-(4-morpho-linophenyl)-N-(tetrahydro-2H-pyran-4-yl)pyrimidine-4-carboxamide hydrochloride] | 18.1 nM | 1.78 nM |  | 8550 nM | Cl [4]: 39.6 mL/min/kg; F [4]: 9.54%; AUC(0-inf) [4]: 265 ng·h/mL; Cmax [4]: 56.2 ng/mL; half-life [4]: 4.96 h; Vd [4]: 4.22 L/kg; Papp A→B at 120 min [6]: 3.59 ×10⁻⁶ cm/s; Papp B→A at 120 min [6]: 3.36 ×10⁻⁶ cm/s; efflux ratio at 120 min [6]: 0.96
COc1ccc(-c2cnc(N3CC4CC3CC4N)c(C#N)c2-c2ccc(C#N)c(F)c2)cc1O (stereo not drawn) [Example 73, 2-(5-amino-2-azabicyclo [2.2.1]heptane-2-yl)-4-(4-cyano-3-fluorophenyl)-5-(3-hydroxy-4-methoxyphenyl) nicotinitrile] | 1.9 ± 0.4 nM | 1.61 nM | 7590 nM |  | 
CNC1CCN(c2ncc(-c3ccc(OC)c(O)c3)c(-c3ccc(C#N)c(F)c3)c2C#N)CC1 [Example 79, 4-(4-cyano-3-fluorophenyl)-5-(3-hydroxy-4-methoxyphenyl)-2-(4-(methylamino)piperidin-1-yl) nicotinonitrile hydrochloride] | 0.3 ± 0.1 nM | 0.272 nM | > 10000 nM | 4380 nM | 
Cc1noc2cc(-c3cnc(N4CCC(N)CC4)c(C#N)c3-c3ccc(C#N)c(F)c3)c(F)cc12 [Example 71, 2-(4-aminopiperidin-1-yl)-4-(4-cyano-3-fluorophenyl)-5-(5-fluoro-3-methylbenzo[d]isoxazol-6-yl)nicotinonitrile] | 0.3 ± 0.2 nM | 0.338 nM | 4300 nM |  | 
CS(=O)(=O)N1CCN(C(=O)c2cc(CN[C@@H]3C[C@H]3c3ccc(F)cc3)nc(-c3ccc(-n4cccn4)cc3)n2)CC1 [Example 2, (2-(4-(1H-pyrazol-1-yl)phenyl)-6-((((1R,2S)-2-(4-fluorophenyl)cyclopropyl)amino)methyl)pyrimidin-4-yl)(4-(methylsulfonyl)piperazin-1-yl)methanone] | 17.9 ± 3.2 nM | 0.73 nM |  | 2580 nM | Papp A→B at 120 min [6]: 15 ×10⁻⁶ cm/s; Papp B→A at 120 min [6]: 15 ×10⁻⁶ cm/s; efflux ratio at 120 min [6]: 1

Source: patent US20240216357A1 (SICHUAN HUIYU PHARMACEUTICAL CO., LTD., priority 2021, published 2024)
